The values below are quoted from earlier work in patent US20150051382A1 (CARDIOPEP PHARMA GMBH, priority 2010, published 2015).

Data set [1] concerns patients with chronic congestive heart failure.
Data set [2] has as its system patients with moderate asthma affliction. To be noted: brief infusion; healthy and diseased subjects.
The subject of data set [3] is patients with chronic congestive heart failure. To be noted: 15 ng/kg/min, 10-hour infusion.

As for urodilatin, the “changes of the baseline in pulmonary capillary wedge pressure (PCWP)” value in data set [1] (15+30 ng/kg/min, compared with the placebo group) is given as “significant reductions”. In data set [1] (15 and 30 ng/kg/min), the “changes of the cardiac index (CI)” value is given as “significant increase”. Further, in data set [1] (after 6 to 8 hours of infusion), the “cardiac index (CI), reversal of effect” value is listed as “partial drop of CI” and the “pulmonary capillary wedge pressure (PCWP), reversal of effect” value was “slight increase of PCWP”. Besides, in data set [1] (all doses), the “symptoms, morbidity and mortality” value was “significantly improved”. In data set [1] (human, in vivo), the “acute survival rate and hospital dwelling time” value was “significantly and relevantly influenced”. In addition, the “effect as compared to other natriuretic peptides, such as ANP” value in the data set on dogs is listed as “better effect”. For the same substance, in data set [2], the effect on bronchoconstriction result was “temporary biological effect”. Besides, the “central venous pressure (CVP)” value in data set [3] (after 5 hours of infusion) is reported as “increases slightly”. Moreover, the urine flow entry in data set [3] (after 8 hours of infusion) is “loss of action”.
